This test relates to HCT15 cells. Put plainly: MDR cell based killing assay, HCT15 cells with or without Verapamil (CellTiter-Glo). Conditions: Homo sapiens. Set-up: species or system human. The procedure:
To test the ability of the disclosed tubulysin payloads or prodrug payloads to kill human cell lines, an in vitro cytotoxicity assay can be performed. In vitro cytotoxicity of the disclosed payloads, as well as reference compounds, are evaluated using the CellTiter-Glo Assay Kit (Promega, Cat # G7573), in which the quantity of ATP present is used to determine the number of viable cells in culture. For the assay, C4-2, HEK293, or T47D cells are seeded at 4000 cells/well on Nunclon white 96-well plates in complete growth medium (DME high glucose:Ham's F12 at 4:1, 10% FBS, 100 units/ml Penicillin, 100 ug/ml streptomycin, 53 ug/ml glutatmine, 10 ug/ml insulin, 220 ng/ml biotin, 12.5 pg/ml T3, 12.5 ug/ml Adenine, 4 ug/ml transferrin for C42 cells; DME high glucose, 10% FBS, 100 units/ml Penicillin, 100 ug/ml streptomycin, 53 ug/ml glutatmine for HEK293; RPMI, 10% FBS, 100 units/ml Penicillin, 100 ug/ml streptomycin, 53 ug/ml glutatmine, 10 ug/ml insulin, 10 mM HEPEs, 200 nM Sodium Pyruvate for T47D cells) and grown overnight at 37° C. in 5% CO2. For cell viability curves, 1:3 serially diluted payloads are added to the cells at final concentrations ranging from 100 nM to 15 pM, including a no treatment control group, and are then incubated for 5 days. After the 5-day incubation, cells are incubated at room temperature with 100 μL of CellTiter-Glo reagents for 10 minutes. Relative luminescence units (RLU) can be determined on a Victor plate reader (PerkinElmer). The IC50 values are determined from a four-parameter logistic equation over a 10-point response curve (GraphPad Prism). All IC50 values are expressed in molar (M) concentration. The percent cell killing (% kill) at the maximum concentration tested is estimated from the following formula (100−% viable cells). Averages±standard deviation (SD) can be included where replicate experiments are performed.
In vitro cytotoxicity of the disclosed payloads as well as reference compounds are evaluated similarly as described above except using 1000 HCT15 cells, a colorectal carcinoma cell line, in growth medium (RPMI, 10% FBS, 100 units/ml Penicillin, 100 ug/ml streptomycin, 53 ug/ml glutatmine) with or without 5 ug/mL of Verapamil.
For each payload or prodrug payload, the HCT-15 IC50 in the absence of Verapamil is divided by the HCT-15 IC50 in the presence of Verapamil (HCT-15 IC50/HCT-15+Verapamil IC50). […] The reference compound, (MMAE), can have a ratio of 23.7. […]
A general note: ATP-based viability assays read luminescence as a measure of living cells.

The mark [1] stands for this setting: HCT-15, read-out: HCT-15 with verapamil IC50.

Each structure is given as a SMILES string. Read-outs that look alike come from different tables or passages of the source.

For orientation: IC50 means the midpoint of a concentration-inhibition curve. Consider `CCCCCCN(C(=O)[C@@H](NC(=O)[C@H]1C[C@H](C)CCN1)[C@@H](C)CC)[C@H](C[C@@H](OC(C)=O)c1nc(C(=O)N[C@@H](Cc2ccc(N)c(F)c2)CC(C)(C)C(=O)O)cs1)C(C)C` [Compound P14, (4S)-4-({2-[(1R,3R)-1-(acetyloxy)-3-[(2S,3S)—N-hexyl-3-methyl-2-{[(2R,4R)-4-methylpiperidin-2-yl]formamido}pentanamido]-4-methylpentyl]-1,3-thiazol-4-yl}formamido)-5-(4-amino-3-fluorophenyl)-2,2-dimethylpentanoic Acid], for which the IC50 runs as follows: (HCT-15, read-out: HCT-15 IC50) 1.21 nM; under setting [1], 0.1 nM.
For `CCCCCON(C(=O)[C@@H](NC(=O)[C@H]1CCCCN1)[C@@H](C)CC)[C@H](C[C@@H](OC(C)=O)c1nc(C(=O)N[C@@H](Cc2ccc(N)cc2)CC(C)(C)C(=O)O)cs1)C(C)C` [Compound P36, (4S)-4-({2-[(1R,3R)-1-(acetyloxy)-4-methyl-3-[(2S,3S)-3-methyl-N-(pentyloxy)-2-[(2R)-piperidin-2-ylformamido]pentanamido]pentyl]-1,3-thiazol-4-yl}formamido)-5-(4-aminophenyl)-2,2-dimethylpentanoic Acid], for the setting “HCT-15, read-out: HCT-15 IC50”, the IC50 worked out at 12.2 nM.
For the compound `CCCCCCN(C(=O)[C@@H](NC(=O)[C@H]1CCCCN1C)[C@@H](C)CC)[C@H](C[C@@H](OCC)c1nc(C(=O)N[C@@H](Cc2ccccc2)CC(C)(C)C(=O)NS(=O)(=O)Cc2ccc(N)cc2)cs1)C(C)C` [Compound P48, (2S,3S)—N-[(1R,3R)-1-(4-{[(2S)-4-{[(4-aminophenyl)methanesulfonyl]carbamoyl}-4,4-dimethyl-1-phenylbutan-2-yl]carbamoyl}-1,3-thiazol-2-yl)-1-ethoxy-4-methylpentan-3-yl]-N-hexyl-3-methyl-2-{[(2R)-1-methylpiperidin-2-yl]formamido}pentanamide], for the setting “HCT-15, read-out: HCT-15 IC50”, the IC50 is 65.8 nM.
In the case of `C#CCCCON(C(=O)[C@@H](NC(=O)[C@H]1CCCCN1C)[C@@H](C)CC)[C@H](C[C@@H](OC(C)=O)c1nc(C(=O)N[C@@H](Cc2ccc(NC(=O)CO)cc2)CC(C)(C)C(=O)O)cs1)C(C)C` [Compound P37, (4S)-4-({2-[(1R,3R)-1-(acetyloxy)-4-methyl-3-[(2S,3S)-3-methyl-2-{[(2R)-1-methylpiperidin-2-yl]formamido}-N-(pent-4-yn-1-yloxy)pentanamido]pentyl]-1,3-thiazol-4-yl}formamido)-5-[4-(2-hydroxyacetamido)phenyl]-2,2-dimethylpentanoic Acid], the IC50 (HCT-15, read-out: HCT-15 IC50) was found to be 102 nM.
For the compound `CCCCCCN(C(=O)[C@@H](NC(=O)[C@H]1CCCCN1C)[C@@H](C)CC)[C@H](C[C@@H](OC(C)=O)c1nc(C(=O)N[C@@H](Cc2ccc(F)cc2)CC(C)(C)C(=O)O)cs1)C(C)C` [Compound P10, (4S)-4-({2-[(1R,3R)-1-(acetyloxy)-3-[(2S,3S)—N-hexyl-3-methyl-2-{[(2R)-1-methylpiperidin-2-yl]formamido}pentanamido]-4-methylpentyl]-1,3-thiazol-4-yl}formamido)-5-(4-fluorophenyl)-2,2-dimethylpentanoic Acid], the IC50 by setting is: (HCT-15, read-out: HCT-15 IC50) 0.24 nM; under setting [1], 0.09 nM.
As to `CCCCCCN(C(=O)[C@@H](NC(=O)[C@H]1C[C@H](C)CCN1)[C@@H](C)CC)[C@H](C[C@@H](OCC)c1nc(C(=O)N[C@@H](Cc2ccc(N)c(F)c2)CC(C)(C)C(=O)O)cs1)C(C)C` [Compound P17, (4S)-5-(4-amino-3-fluorophenyl)-4-({2-[(1R,3R)-1-ethoxy-3-[(2S,3S)—N-hexyl-3-methyl-2-{[(2R,4R)-4-methylpiperidin-2-yl]formamido}pentanamido]-4-methylpentyl]-1,3-thiazol-4-yl}formamido)-2,2-dimethylpentanoic Acid], the half-inhibitory concentration (IC50) was determined as 5.17 nM (HCT-15, read-out: HCT-15 IC50) and 0.67 nM under setting [1].
For `CCCCCCN(C(=O)[C@@H](NC(=O)[C@@]1(C)CCCN1)[C@@H](C)CC)[C@H](C[C@@H](OC(=O)NC)c1nc(C(=O)N[C@@H](Cc2ccc(O)cc2)CC(C)(C)C(=O)O)cs1)C(C)C` [Compound P23, (4S)-4-({2-[(1R,3R)-3-[(2S,3S)—N-hexyl-3-methyl-2-{[(2R)-2-methylpyrrolidin-2-yl]formamido}pentanamido]-4-methyl-1-[(methylcarbamoyl)oxy]pentyl]-1,3-thiazol-4-yl}formamido)-5-(4-hydroxyphenyl)-2,2-dimethylpentanoic Acid] the same measures were 3.6 nM and 0.06 nM.
On to `C#CCCCON(C(=O)[C@@H](NC(=O)[C@H]1CCCCN1C)[C@@H](C)CC)[C@H](C[C@@H](OC(C)=O)c1nc(C(=O)N[C@@H](Cc2ccc(O)cc2)CC(C)(C)C(=O)O)cs1)C(C)C` [Compound P51, (4S)-4-({2-[(1R,3R)-1-(acetyloxy)-4-methyl-3-[(2S,3S)-3-methyl-2-{[(2R)-1-methylpiperidin-2-yl]formamido}-N-(pent-4-yn-1-yloxy)pentanamido]pentyl]-1,3-thiazol-4-yl}formamido)-5-(4-hydroxyphenyl)-2,2-dimethylpentanoic Acid], for which the IC50 amounted to 0.41 nM (HCT-15, read-out: HCT-15 IC50) and 0.16 nM under setting [1].
Consider `CCCCCCN(C(=O)[C@@H](NC(=O)[C@H]1CCCCN1)[C@@H](C)CC)[C@H](C[C@@H](OC(C)=O)c1nc(C(=O)N[C@@H](Cc2ccc(N)cc2)CC(C)(C)C(=O)O)cs1)C(C)C` [Compound P18, (4S)-4-({2-[(1R,3R)-1-(acetyloxy)-3-[(2S,3S)—N-hexyl-3-methyl-2-[(2R)-piperidin-2-ylformamido]pentanamido]-4-methylpentyl]-1,3-thiazol-4-yl}formamido)-5-(4-aminophenyl)-2,2-dimethylpentanoic Acid], for which the IC50 turned out to be 0.98 nM (HCT-15, read-out: HCT-15 IC50) and 0.05 nM under setting [1].
For the compound `CCCCCCN(C(=O)[C@@H](NC(=O)[C@H]1CCCCN1C)[C@@H](C)CC)[C@H](C[C@@H](OC(C)=O)c1nc(C(=O)NS(=O)(=O)c2ccc(N)cc2)cs1)C(C)C` [Compound P43, (1R,3R)-1-{4-[(4-aminobenzenesulfonyl)carbamoyl]-1,3-thiazol-2-yl}-3-[(2S,3S)—N-hexyl-3-methyl-2-{[(2R)-1-methylpiperidin-2-yl]formamido}pentanamido]-4-methylpentyl Acetate], the IC50 (HCT-15, read-out: HCT-15 IC50) is 4.99 nM and the IC50 under setting [1] came out at 1.42 nM.
`CCCCCCN(C(=O)[C@@H](NC(=O)[C@H]1CCCCN1C)[C@@H](C)CC)[C@H](C[C@@H](OCC)c1nc(C(=O)NS(=O)(=O)Cc2ccc(N)cc2)cs1)C(C)C` [Compound P45, N-[(4-aminophenyl)methanesulfonyl]-2-[(1R,3R)-1-ethoxy-3-[(2S,3S)—N-hexyl-3-methyl-2-{[(2R)-1-methylpiperidin-2-yl]formamido}pentanamido]-4-methylpentyl]-1,3-thiazole-4-carboxamide]: the IC50 (HCT-15, read-out: HCT-15 IC50) amounted to 75.7 nM.
Take `C#CCCCON(C(=O)[C@@H](NC(=O)[C@@]1(C)CCCN1)[C@@H](C)CC)[C@H](C[C@@H](OC(C)=O)c1nc(C(=O)N[C@@H](Cc2ccc(N)c(F)c2)CC(C)(C)C(=O)O)cs1)C(C)C` [Compound P35, (4S)-4-({2-[(1R,3R)-1-(acetyloxy)-4-methyl-3-[(2S,3S)-3-methyl-2-{[(2R)-2-methylpyrrolidin-2-yl]formamido}-N-(pent-4-yn-1-yloxy)pentanamido]pentyl]-1,3-thiazol-4-yl}formamido)-5-(4-amino-3-fluorophenyl)-2,2-dimethylpentanoic Acid]: the IC50 (HCT-15, read-out: HCT-15 IC50) turned out to be 4.87 nM.

The values above are taken from patent US20230069722A1, “TUBULYSINS AND PROTEIN-TUBULYSIN CONJUGATES” (priority 2020, published 2023).
